How the values were obtained:
[1] = test system: Plasmodium falciparum parasites; test: CM-CQ accumulation with chemo-sensitizers, flow cytometry; type: cell-based; details: for effect of pre-treatment on CM-CQ accumulation in K1: K1 (CQ-resistant), 10 uM chemo-sensitizer 30 min, then 6 uM CM-CQ 10 hrs
Protocol: FIG. 8 is a graph showing the effects of chemo-sensitizers on coumarin-conjugated chloroquine (CM-CQ) accumulation in Plasmodium falciparum parasites. Data were obtained by flow cytometry.
(§1) Subsequently, 6 uM of Coumarin-Chloroquine (CM-CQ) was added to the samples for 10 hrs and left to incubate in the dark at 37° C. To ascertain the exact parasitemia of each condition, cultures in duplicate wells were stained with Hoechst just before flow cytometric analysis and fluorescence plate measurements. The proportion of CM-CQ-stained parasites was the ratio of the proportion of CM-CQ-stained infected erythrocyte culture over the proportion of Hoechst-positive erythrocytes.

[2] = test system: Plasmodium falciparum parasites; test: CM-CQ accumulation with chemo-sensitizers, fluorescent plate reader; type: cell-based; details: for effect of pre-treatment on CM-CQ accumulation in K1: K1 (CQ-resistant), 10 uM chemo-sensitizer 30 min, then 6 uM CM-CQ 10 hrs
Protocol: FIG. 9 is a graph showing the effects of chemo-sensitizers on coumarin-conjugated chloroquine (CM-CQ) accumulation in Plasmodium falciparum parasites, obtained by spectrofluorometer plate readings.
as §1

[3] = test system: P. falciparum strains 3D7 (CQ-susceptible); test: Inhibitory concentration (IC50) determination, Hoechst staining and flow cytometry; type: cell-based, Plasmodium falciparum
Protocol: Parasitized cultures were incubated for 48 hours with various concentrations of the test compounds and, thereafter, parasitemia was determined using Hoechst staining and flow cytometric analyses.
(§2) Plasmodium falciparum culture. […] Parasite cultures were maintained in 75 cm^2 or 125 cm^2 flasks using malaria culture media (MCM) consisting of RPMI 1640 supplemented with 0.5% (w/v) albumax I (Invitrogen), 0.005% (w/v) hypoxanthine, 0.03% (w/v) L-glutamate, 0.25% (w/v) gentamycin and 2.5% human erythrocytes. Flasks were gassed with 3% CO2, 4% O2 and 93% N2 and incubated at 37° C. in a dark incubator. Culture medium was replenished during subculturing on alternate days. Thin Giemsa smears were made to determine parasitemia before subculture and at the start of each experiment. Sorbitol synchronization (See Lambros, C., and Vanderberg, J. P. (1979) J Parasitol 65, 418-420) was carried out weekly to select for ring-stage parasites. Saponin enrichment (See Beaumelle, B. D., et al., (1987) J. Parasitol 73, 743-748) was carried out prior to staining with CaspaTag to liberate the parasites from host erythrocytes. Cultures of approximately 10% parasitemia were used, with parasites being in the late-ring stage (22-26 hours post-invasion) during the administration of inhibitor and drugs unless otherwise stated.
Inhibitory concentration (IC50) determination. […] To determine parasitemia, cultures were stained with Hoechst 33342, as described above, and analyzed by flow cytometry.
(§3) Flow Cytometric Analyses. Cell numbers and fluorescence intensity after staining with JC-1 were assayed by a flow cytometer (DAKO Cytomation Cyan ADP), equipped with an argon-ion laser tuned to 488 nm and a violet laser tuned to 405 nm. Green and red fluorescence was detected using 525 and 595 nm band-pass filters respectively. The flow cytometer was adjusted for forward and side scattering to accommodate infected erythrocytes. Between 10,000 to 20,000 infected erythrocytes or enriched parasites were analyzed from each sample and its respective duplicate to ensure reliability. At least three independent experiments were performed unless otherwise stated.

P. falciparum, 3D7 [4] = test: Mitochondria trans-membrane potential assay (JC-1); type: cell-based, Plasmodium falciparum
Protocol: as §2, with “Cultures of approximately 10% parasitemia were used, with parasites being in the late-ring stage (22-26 hours post-invasion) during the administration of inhibitor and drugs unless otherwise stated.” left out
as §3, with “The flow cytometer was adjusted for forward and side scattering to accommodate infected erythrocytes.” left out, “At least three independent experiments were performed unless otherwise stated.” left out

P. falciparum, 3D7 [5] = details: low nanomolar concentrations of CQ, 8 hours
Protocol: as §2

[6] = 3D7, 48 hours, at the tested concentrations

| Structure (SMILES) | effect of pre-treatment on CM-CQ accumulation in K1 [1] | effect of pre-treatment on CM-CQ accumulation in K1 [2] | further results |
| --- | --- | --- | --- |
| CNCCCN1c2ccccc2CCc2ccccc21 [DSP, desipramine] | significantly increased | significantly increased |  |
| CN(C)CCCN1c2ccccc2Sc2ccc(Cl)cc21 [CPZ, chlorpromazine] | significantly increased | significantly increased |  |
| COc1ccc(CCN(C)CCCC(C#N)(c2ccc(OC)c(OC)c2)C(C)C)cc1OC (centres unmarked) [VPM, verapamil] | significantly increased | significantly increased |  |
| COc1ccc([C@@H]2Sc3ccccc3N(CCN(C)C)C(=O)[C@@H]2OC(C)=O)cc1 [DTZ, diltiazem] | not | not |  |
| CN(C)c1ccc2c(CC(=O)O)cc(=O)oc2c1 [CM, 7-dimethyl amino-4-coumarinacetic acid] |  |  | cytotoxicity [3, 6]: not cytotoxic; inhibitory effect on parasitemia [3, 6]: no detectable inhibitory effect |
| CC(CN1c2ccccc2Sc2ccccc21)N(C)C (centres unmarked) [PMZ, promethazine] | significantly increased | increase was also detected |  |
| CC(C)NCC(O)COc1cccc2ccccc12 (centres unmarked) [PPL, propranolol] | not | not |  |
| CCN(CCCCNc1ccnc2cc(Cl)ccc12)CC(=O)NCCNC(=O)Cc1cc(=O)oc2cc(N(C)C)ccc12 [CM-CQ] |  |  | activity compared to chloroquine (FIG. 2) ([3]; 3D7): activity comparable to chloroquine; IC50 ([3]; Plasmodium falciparum, read-out: IC50 (50% inhibitory concentration), 3D7, ring stage, 48 hours, parasitemia by Hoechst 33342 flow cytometry): 349 nM; proportion of parasites containing functional mitochondrion with transmembrane potential (ΔΨm) after treatment (P. falciparum, 3D7 [4]; JC-1 J-aggregates, dose-dependent decline from about 90% in uninduced cells): ~60%; CM-CQ accumulation, 3D7 compared to 7G8 and K1 ([1]; 6 uM CM-CQ 10 hrs, p<0.05): different levels; CM-CQ accumulation, 3D7 compared to 7G8 and K1 ([2]; 6 uM CM-CQ 10 hrs, p<0.001): different levels |
| CN(C)CCC(c1ccc(Cl)cc1)c1ccccn1 (centres unmarked) [CPR, chlorpheneramine] | increase was also detected | significantly increased |  |
| CCN(CC)CCCC(C)Nc1ccnc2cc(Cl)ccc12 (centres unmarked) [CQ, Chloroquine diphosphate] |  |  | PCD features (JC-1) (P. falciparum, 3D7 [4]; low nanomolar concentrations of CQ, 8 hours): basal levels; PCD features (CaspaTag) (P. falciparum, 3D7 [5]): basal levels |

From patent US20120100555A1, “Synthesis And Use Of Fluorophore-Tagged Antimalarials” (priority 2009, published 2012)
